Measurements as given in BigSolDB 2.1.

COc1cc(-c2cc(=O)c3c(O)cc(O)cc3o2)cc(OC)c1O
solubility (mole fraction)
Settings | 288.15 K | 293.16 K | 298.15 K | 303.15 K | 308.16 K | 313.18 K | 318.15 K
in ethanol | 5.94e-06 | 8.85e-06 | 1.26e-05 | 1.72e-05 | 2.19e-05 | 3e-05 | 3.83e-05
in water | 5e-10 | 1e-09 | 1.4e-09 | 2.1e-09 | 3.5e-09 | 5.6e-09 | 8.1e-09
